EC50 and IC50 data for twelve molecules are collected here from patent US10023557B2 (LifeSci Pharmaceuticals, Inc., priority 2015, dated 2018).

Experiment [1] concerns the target cellular kallikrein activity (Homo sapiens (Human), UniProt P03952). The experiment is described as follows: In vitro cellular assay (contact assay): kallikrein activity in ellagic acid-activated human plasma, Z-FR-2-AMC substrate. The experiment is classed as biochemical. The settings on record: human plasma activated with ellagic acid, 37° C. As for the experimental part: The ability of the compounds disclosed herein to inhibit cellular kallikrein activity was quantified and the respective EC50 value was determined.
All dilutions were prepared in an assay buffer comprising 50 mM Tris-HCl pH 7.2, 150 mM NaCl, and 0.01% Triton X-100.
The ten solutions of the test compounds, prepared by serial dilution, were further diluted 50-fold in the assay buffer.
Human plasma is thawed on ice and centrifuged for 15 min at 4° C. to remove platelets. A 1 mM stock solution of ellagic acid is diluted to 8 μM and mixed with human plasma, after removing platelets, at a ratio of 1:0.8.
A 22.5 μL volume of the final mixture of human plasma and ellagic acid was added to a 96-well microwell plate and the plate was incubated for 15 min at 37° C.
The CINH inhibitor at various concentrations, prepared by serial dilutions as described above, were added to the inhibitor control wells. […] Each CINH concentration is tested in duplicates.
The test compounds at various concentrations, also prepared by serial dilutions as described above, are added to the test wells. […] Each test compound concentration was tested in duplicates.
In addition to the inhibitor control and test wells, the 96 well assay plate includes positive control wells which contained the mixture of human plasma and ellagic acid without C1NH inhibitor or test compounds, and background wells which contained neither the mixture of human plasma and ellagic acid nor the test compounds. The total volume of liquid in positive control and background wells was brought up to 35 μL, using the assay buffer.
The assay plate containing C1NH inhibitors and test compounds mixed with human plasma and ellagic acid and appropriate controls was incubated at 37° C. for 5 min. […] The reagents were mixed well by shaking the plate gently for 30 sec.
The enzyme reaction was quantified by immediate kinetic reading of the assay plate using excitation/emission wavelengths of 330 nm/440 nm respectively. Fluorescence intensity was recorded for 60 min, using a time interval of 43 sec.
The inhibition activity of the test compounds were evaluated using the EC50 values, calculated according to the dose-response curve of the test compounds, fitted using the “log(inhibitor)−response (variable slope)” equation in GraphPadPrism software (GraphPad Software, Inc.).
The percentage inhibition was calculated using the following equation:
[formula] where, Mean (BG) is the average value of the fluorescence intensity of the background wells and Mean (PC) is the average value of the fluorescence intensity of the positive control wells.
Table 4 provides the EC50 values of various compounds disclosed herein.

The target of experiment [2] is human plasma kallikrein (Homo sapiens (Human), UniProt P03952). The experiment is described as follows: In vitro enzyme inhibition of human plasma kallikrein (PFR-AMC cleavage). Type of experiment: biochemical. The settings on record: Pro-Phe-Arg-AMC substrate, 37° C., read-out: hPK IC50. The procedure, abridged: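 Human plasma kallikrein and compound, diluted in 50 mM Tris-HCl pH 7.5, 150 mM NaCl, 0.01% Triton X-100, preincubated 5 min at 37 °C before PFR-AMC was added.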
human plasma kallikrein, sequence (P03952 391-638): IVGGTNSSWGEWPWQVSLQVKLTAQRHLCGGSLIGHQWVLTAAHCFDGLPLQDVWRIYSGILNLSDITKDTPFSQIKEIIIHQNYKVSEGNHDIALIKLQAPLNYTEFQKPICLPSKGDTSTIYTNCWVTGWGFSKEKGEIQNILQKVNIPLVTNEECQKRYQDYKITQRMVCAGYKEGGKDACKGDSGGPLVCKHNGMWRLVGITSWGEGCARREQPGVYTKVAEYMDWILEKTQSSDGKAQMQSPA
human plasma kallikrein, sequence (P03952 20-390 partner): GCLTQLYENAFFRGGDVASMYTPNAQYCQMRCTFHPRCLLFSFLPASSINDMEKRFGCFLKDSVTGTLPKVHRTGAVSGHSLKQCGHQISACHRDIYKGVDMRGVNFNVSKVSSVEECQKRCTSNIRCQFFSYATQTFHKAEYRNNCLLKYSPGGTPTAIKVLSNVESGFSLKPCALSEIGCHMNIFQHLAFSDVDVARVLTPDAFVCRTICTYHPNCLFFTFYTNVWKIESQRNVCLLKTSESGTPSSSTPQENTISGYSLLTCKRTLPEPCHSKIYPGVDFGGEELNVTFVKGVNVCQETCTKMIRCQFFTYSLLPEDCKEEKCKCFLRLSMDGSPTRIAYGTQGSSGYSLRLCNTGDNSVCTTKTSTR

Each structure is given as a SMILES string.

cellular kallikrein activity, sequence (P03952 391-638): as the sequence (P03952 391-638) above
cellular kallikrein activity, sequence (P03952 20-390 partner): as the sequence (P03952 20-390 partner) above

By EC50 is commonly meant the concentration that produces a half-maximal response. Broadly, the IC50 is the concentration needed to halve the response being measured. As to `Cc1cc(N)nc(C)c1CNC(=O)c1ccnc(Cc2ccc3ncc(C(F)(F)F)cc3c2)c1` [Example 228, N-((6-amino-2,4-dimethylpyridin-3-yl)methyl)-2-((3-(trifluoromethyl)quinolin-6-yl)methyl)isonicotinamide], the EC50 in experiment [1] was less than 100 nM. In experiment [2], the IC50 was less than 100 nM.
In turn, `Cc1nc(N)ccc1CNC(=O)c1ccnc(Cc2ccc3ncc(C(F)(F)F)cc3c2)c1` [Example 229, N-((6-amino-2-methylpyridin-3-yl)methyl)-2-((3-(trifluoromethyl)quinolin-6-yl)methyl)isonicotinamide] registered an EC50 in experiment [1] of less than 100 nM. For the same molecule, in experiment [2], the IC50 was less than 100 nM.
For the molecule `O=C(NCc1cc2c(Cl)c[nH]c2cc1F)c1ccnc(Cc2ccc3ncc(C(F)(F)F)cc3c2)c1` [Example 230, N-((3-chloro-6-fluoro-1H-indol-5-yl)methyl)-2-((3-(trifluoromethyl)quinolin-6-yl)methyl)isonicotinamide], in experiment [1], the EC50 was 100 to 1000 nM. For the same molecule, the IC50 in experiment [2] was less than 100 nM.
In the same order, the values of `O=C(NCc1cnc2[nH]cc(Cl)c2c1)c1ccnc(Cc2ccc3ncc(C(F)(F)F)cc3c2)c1` [Example 231, N-((3-chloro-1H-pyrrolo[2,3-b]pyridin-5-yl)methyl)-2-((3-(trifluoromethyl)quinolin-6-yl)methyl)isonicotinamide] are 100 to 1000 nM and less than 100 nM.
The like results for `Nc1nccc2cc(CNC(=O)c3ccnc(Cc4ccc5ncc(C(F)(F)F)cc5c4)c3)ccc12` [Example 232, N-((1-aminoisoquinolin-6-yl)methyl)-2-((3-(trifluoromethyl)quinolin-6-yl)methyl)isonicotinamide] were, in that order, less than 100 nM and less than 100 nM.
The molecule `O=C(NCc1ccc2[nH]cc(Cl)c2c1F)c1ccnc(Cc2ccc3ncc(C(F)(F)F)cc3c2)c1` [Example 234, N-((3-chloro-4-fluoro-1H-indol-5-yl)methyl)-2-((3-(trifluoromethyl)quinolin-6-yl)methyl)isonicotinamide] yielded an EC50 in experiment [1] of 100 to 1000 nM. Moreover, in experiment [2], the IC50 was less than 100 nM.
In experiment [1], `Cc1cc(N)nc(C)c1CNC(=O)c1ccnc(Cc2cc(S(N)(=O)=O)c3ncc(Cl)cc3c2)c1` [Example 235, N-((6-amino-2,4-dimethylpyridin-3-yl)methyl)-2-((3-chloro-8-sulfamoylquinolin-6-yl)methyl)isonicotinamide] displayed an EC50 of less than 100 nM. For the same molecule, the IC50 in experiment [2] is less than 100 nM.
Turning to `Cc1nc(N)ccc1CNC(=O)c1ccnc(Cc2cc(S(N)(=O)=O)c3ncc(Cl)cc3c2)c1` [Example 236], the concentration for a half-maximal effect (EC50) in experiment [1] is less than 100 nM. Moreover, the IC50 in experiment [2] was less than 100 nM.
For the molecule `Cc1cc(N)nc(C)c1CNC(=O)c1ccnc(Cc2ccc3nc(C)c(Cl)cc3c2)c1` [Example 238, N-((6-amino-2,4-dimethylpyridin-3-yl)methyl)-2-((3-chloro-2-methylquinolin-6-yl)methyl)isonicotinamide], the EC50 in experiment [1] is less than 100 nM. The IC50 in experiment [2] is less than 100 nM.
In the case of `Cc1nc2ccc(Cc3cc(C(=O)NCc4ccc(N)nc4C)ccn3)cc2cc1Cl` [Example 239, N-((6-amino-2-methylpyridin-3-yl)methyl)-2-((3-chloro-2-methylquinolin-6-yl)methyl)isonicotinamide], the EC50 in experiment [1] fell in the range of 100 to 1000 nM. Moreover, in experiment [2], the IC50 is less than 100 nM.
The molecule `Cc1cc(N)nc(C)c1CNC(=O)c1ccnc(Cc2cc(CN)c3ncc(Cl)cc3c2)c1` [Example 241, N-((6-amino-2,4-dimethylpyridin-3-yl)methyl)-2-((8-(aminomethyl)-3-chloroquinolin-6-yl)methyl)isonicotinamide] came in with an EC50 in experiment [1] of less than 100 nM. For the same molecule, the 50% inhibitory concentration (IC50) in experiment [2] was less than 100 nM.
Turning to `Cc1cc(N)nc(C)c1CNC(=O)c1ccnc(Cc2ccc3ncc(C4CC4)cc3c2)c1` [Example 243, N-((6-amino-2,4-dimethylpyridin-3-yl)methyl)-2-((3-cyclopropylquinolin-6-yl)methyl)isonicotinamide], in experiment [1], the EC50 is less than 100 nM. Moreover, the IC50 in experiment [2] was less than 100 nM.
